Data published in patent US11464771B2, “Bromodomain and extra-terminal protein inhibitor combination therapy” (CELGENE QUANTICEL RESEARCH, INC., priority 2016, dated 2022).
Entries after “also recorded” stand apart in the source; their conditions may differ.

Legend:
[1] = test system: CYP3A4; experiment: CYP3A4 induction in hepatocytes; type: in vitro ADME; conditions: up to 10 μM
Excerpt: Compound A has minimal potential to cause drug-drug interactions with co-administered drugs that are CYP substrates.

[2] = GLP 4-week oral toxicity study in rats; type: in vivo; conditions: for severely toxic dose in 10% of the rats (STD10): 3 days on/4 days off, 4 weeks
Excerpt: The dosing schedule was once daily administration for 3 consecutive days followed by 4 consecutive days off drug each week for a total of 4 weeks.

[3] = Metabolism in human hepatocytes; type: in vitro ADME; conditions: single metabolite
Excerpt: No unique human metabolites were identified.

Cn1cc(-c2cc(S(C)(=O)=O)ccc2OCC2CC2)c2ccccc2c1=O [Compound A, 4-[2-(cyclopropylmethoxy)-5-methylsulfonylphenyl]-2-methylisoquinolin-1-one]
induction of CYP3A4 [1]: not an inducer; also recorded: did not induce
severely toxic dose ([2]; 4-week rat study, death or moribund sacrifice from Day 6): ≥ 20 mg base/kg/dose
mean exposure corresponding to the rat STD10 ([2]; AUC): 52800 ng·h/mL
Rat STD10 ([2]; Table 3): 20 mg base/kg
severely toxic dose in 10% of the rats (STD10) ([2]; females): 20 mg base/kg/dose
HED ([2]; from rat STD10): 3.2 mg base/kg
severely toxic dose in 10% of the rats (STD10) ([2]; males): 30 mg base/kg/dose
accumulation after repeat dosing ([2]; rat, in vivo): no accumulation
overarching NOAEL ([2]; rat, in vivo): 5 mg base/kg/dose
HED/Safety Factor ([2]; rat, safety factor 10): 19 mg base
overarching STD10 ([2]; rats): 20 mg base/kg/dose
metabolite identified [3]: N-desmethyl derivative
